Experimental data taken from ChEMBL document CHEMBL1944621, “Design, synthesis, and biological evaluation of novel (1-thioxo-1,2,3,4-tetrahydro-β-carbolin-9-yl)acetic acids as selective inhibitors for AKR1B1” (Bioorg Med Chem, 2012).

Columns and labels:
[1] = biological target: T1, Aldo-keto reductase family 1 member B1 (Homo sapiens, UniProt P15121); assay: Inhibition of human recombinant AKR1B1 expressed in Escherichia coli BL21 cells using pyridine-3-aldehyde as substrate by spectrophotometry
[2] = biological target: Aldo-keto reductase family 1 member B10 (Homo sapiens, UniProt O60218); assay: Inhibition of recombinant N-His6-tagged AKR1B10 expressed in Escherichia coli BL21 cells using pyridine-3-aldehyde as substrate by spectrophotometry
[3] = biological target: T2, Aldo-keto reductase family 1 member A1 (Homo sapiens, UniProt P14550); assay: Inhibition of human recombinant AKR1A1 expressed in Escherichia coli BL21 cells using D-glucuronate as substrate by spectrophotometry
T2 sequence (P14550 whole entry): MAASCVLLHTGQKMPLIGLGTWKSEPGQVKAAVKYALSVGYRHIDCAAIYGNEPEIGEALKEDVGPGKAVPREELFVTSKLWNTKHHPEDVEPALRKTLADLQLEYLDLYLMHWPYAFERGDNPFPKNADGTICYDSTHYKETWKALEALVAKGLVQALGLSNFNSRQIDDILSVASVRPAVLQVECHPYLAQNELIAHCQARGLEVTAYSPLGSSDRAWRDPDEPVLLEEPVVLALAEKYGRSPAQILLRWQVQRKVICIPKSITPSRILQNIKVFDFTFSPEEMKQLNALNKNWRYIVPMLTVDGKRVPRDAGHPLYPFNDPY

[4] = biological target: T1, Aldo-keto reductase family 1 member B1
Description: Noncompetitive inhibition of human recombinant AKR1B1 using pyridine-3-aldehyde as substrate by Lineweaver-Burk plot analysis

Aldo-keto reductase family 1 member B10, sequence (O60218 whole entry): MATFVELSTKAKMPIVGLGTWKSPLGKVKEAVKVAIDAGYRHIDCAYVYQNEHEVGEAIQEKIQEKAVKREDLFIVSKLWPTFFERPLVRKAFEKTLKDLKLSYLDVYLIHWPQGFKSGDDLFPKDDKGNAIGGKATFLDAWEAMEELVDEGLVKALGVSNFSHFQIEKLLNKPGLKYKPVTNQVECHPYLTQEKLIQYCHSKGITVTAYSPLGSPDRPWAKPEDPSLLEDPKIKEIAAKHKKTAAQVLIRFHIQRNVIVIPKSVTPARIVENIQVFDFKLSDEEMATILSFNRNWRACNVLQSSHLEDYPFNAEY

SMILES: O=C(O)Cn1c2c(c3ccccc31)CCN(Cc1ccc(Br)cc1F)C2=S
- IC50 [1]: 4.2 µM
- IC50 [2]: 0.68 µM

SMILES: O=C(O)Cn1c2c(c3cc(F)ccc31)CCN(Cc1ccc(Br)cc1F)C2=S
- IC50 [1]: 1.7 µM
- IC50 [2]: 0.28 µM

SMILES: O=C(O)Cn1c2c(c3cc(Cl)ccc31)CCN(Cc1ccccc1)C2=S
- IC50 [1]: 0.35 µM
- IC50 [2]: 1.4 µM
- IC50 [3]: 15 µM

SMILES: O=C(O)Cn1c2c(c3cc(F)ccc31)CCN(Cc1ccc(C(F)(F)F)cc1)C2=S
- IC50 [1]: 10 µM
- IC50 [2]: 1.6 µM

SMILES: O=C(O)Cn1c2c(c3c(F)cc(F)cc31)CCN(CCc1ccccc1)C2=S
- IC50 [1]: 1.8 µM
- IC50 [2]: 0.4 µM

SMILES: O=C(O)Cn1c2c(c3cc(Br)ccc31)CCN(Cc1ccccc1)C2=S
- IC50 [1]: 0.32 µM
- IC50 [2]: 1.4 µM
- IC50 [3]: 11 µM

SMILES: O=C(O)Cn1c2c(c3ccccc31)CCN(c1ccccc1)C2=S
- IC50 [1]: 31 µM
- IC50 [2]: 21 µM

SMILES: O=C(O)Cn1c2c(c3ccccc31)CCN(Cc1ccc(C(F)(F)F)cc1)C2=S
- IC50 [1]: 14 µM
- IC50 [2]: 3.8 µM

SMILES: O=C(O)Cn1c2c(c3c(F)cc(F)cc31)CCN(Cc1ccccc1)C2=S
- IC50 [1]: 1.3 µM
- IC50 [2]: 0.48 µM
- IC50 [3]: 4.7 µM

SMILES: O=C(O)Cn1c2c(c3cc(O)ccc31)CCN(Cc1ccccc1)C2=S
- IC50 [1]: 0.2 µM
- IC50 [2]: 1.9 µM

SMILES: O=C(O)Cn1c2c(c3ccc(Cl)cc31)CCN(Cc1ccccc1)C2=S
- IC50 [1]: 0.24 µM
- IC50 [2]: 1.4 µM
- IC50 [3]: 21 µM

SMILES: COc1ccc2c(c1)c1c(n2CC(=O)O)C(=S)N(Cc2ccccc2)CC1
- IC50 [1]: 0.15 µM
- Kii [4]: 180 nM
- Kis [4]: 79 nM
- IC50 [2]: 2.9 µM
- IC50 [3]: 12 µM

SMILES: O=C(O)Cn1c2c(c3c(Cl)cc(Cl)cc31)CCN(Cc1ccccc1)C2=S
- IC50 [1]: 0.19 µM
- IC50 [2]: 6.1 µM
- IC50 [3]: 10 µM

SMILES: CC(C)c1ccc2c(c1)c1c(n2CC(=O)O)C(=S)N(Cc2ccccc2)CC1
- IC50 [1]: 0.2 µM
- IC50 [2]: 3.4 µM
- IC50 [3]: 16 µM

SMILES: O=C(O)Cn1c2c(c3ccccc31)CCN(Cc1ccccc1)C2=S
- IC50 [1]: 0.22 µM
- IC50 [2]: 5.1 µM
- IC50 [3]: 9.5 µM

SMILES: O=C(O)Cn1c2c(c3cc(F)ccc31)CCN(Cc1ccccc1)C2=S
- IC50 [1]: 0.23 µM
- IC50 [2]: 3.3 µM
- IC50 [3]: 19 µM

SMILES: O=C(O)Cn1c2c(c3cc(I)ccc31)CCN(Cc1ccccc1)C2=S
- IC50 [1]: 0.19 µM
- IC50 [2]: 1.4 µM
- IC50 [3]: 11 µM

SMILES: O=C(O)Cn1c2c(c3cc(C(=O)O)ccc31)CCN(Cc1ccccc1)C2=S
- IC50 [1]: 0.17 µM
- Kii [4]: 220 nM
- Kis [4]: 55 nM
- IC50 [2]: 40 µM
- IC50 [3]: 53 µM

SMILES: O=C(O)Cn1c2c(c3ccccc31)CCN(Cc1ccc(Br)cc1)C2=S
- IC50 [1]: 5.9 µM
- IC50 [2]: 0.85 µM
- IC50 [3]: 14 µM
